Patent US10519152B2, “Compounds and their use in treating cancer” (AstraZeneca AB, priority 2017, dated 2019)
Structures can show the parent of a compound that is named as a salt.

Target: T1, Estrogen Receptor (ERα) in MCF-7 human ductal carcinoma breast cell line (Homo sapiens, UniProt P03372)
T1 construct: endogenous in cells; host or cells: MCF-7
T1 sequence (P03372 1-595): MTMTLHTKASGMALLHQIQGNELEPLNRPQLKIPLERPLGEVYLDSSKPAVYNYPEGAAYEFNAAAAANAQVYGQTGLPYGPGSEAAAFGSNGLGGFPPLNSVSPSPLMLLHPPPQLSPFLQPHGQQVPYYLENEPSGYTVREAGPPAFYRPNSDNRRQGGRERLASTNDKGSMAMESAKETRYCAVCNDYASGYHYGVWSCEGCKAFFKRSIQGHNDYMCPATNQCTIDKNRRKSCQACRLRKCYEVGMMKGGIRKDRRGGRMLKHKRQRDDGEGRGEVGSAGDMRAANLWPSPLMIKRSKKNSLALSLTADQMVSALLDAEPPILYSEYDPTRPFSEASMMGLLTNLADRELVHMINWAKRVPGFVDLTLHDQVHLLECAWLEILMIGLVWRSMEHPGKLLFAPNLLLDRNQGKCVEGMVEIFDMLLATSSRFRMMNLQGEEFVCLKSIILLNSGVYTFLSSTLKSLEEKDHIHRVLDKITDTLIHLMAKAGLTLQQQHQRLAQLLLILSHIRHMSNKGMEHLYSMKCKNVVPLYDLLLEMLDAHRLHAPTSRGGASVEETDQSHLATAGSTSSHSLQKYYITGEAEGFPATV
Test: MCF-7 ER degradation assay (cell based immuno-fluorescence)
Conditions: MCF-7 cells; for ER degradation ≥ 90% at 0.3 μM: ER degradation by fulvestrant at 0.3 μM is defined as 100%; for DC50: 18-22 hours incubation, 50% reduction of ERα expression, single experiment or average of two or more, read-out: MCF-7 ER degradation IC50
Procedure, shortened: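 MCF-7 human ductal carcinoma breast cells were seeded at 3.75×10^4 cells per mL (40 μL per well) in 384 well plates with phenol red free DMEM containing 2 mM L-Glutamine and 5% (v/v) Charcoal/Dextran treated foetal calf serum. After overnight culture, compounds were acoustically dispensed, incubated 18-22 hours, then cells were formaldehyde-fixed and immunostained for ERα.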

Row | SMILES | ER degradation ≥ 90% at 0.3 μM | DC50 [nM]
1 | Cc1ncsc1-c1ccc(CNC(=O)[C@@H]2C[C@@H](O)CN2C(=O)[C@@H](NC(=O)COCCOCCOCCCCNC(=O)c2cc(F)c([C@@H]3c4[nH]c5ccccc5c4C[C@@H](C)N3CC(C)(C)F)c(F)c2)C(C)(C)C)cc1 [Example 83, (2S,4R)-1-((S)-17-(tert-Butyl)-1-(3,5-difluoro-4-((1R,3R)-2-(2-fluoro-2-methylpropyl)-3-methyl-2,3,4,9-tetrahydro-1H-pyrido[3,4-b]indol-1-yl)phenyl)-1,15-dioxo-7,10,13-trioxa-2,16-diazaoctadecan-18-oyl)-4-hydroxy-N-(4-(4-methylthiazol-5-yl)benzyl)pyrrolidine-2-carboxamide] | •• | 0.6
2 | Cc1ncsc1-c1ccc(CNC(=O)[C@@H]2C[C@@H](O)CN2C(=O)[C@@H](NC(=O)COCCOCCOCCNC(=O)c2cc(F)c([C@@H]3c4[nH]c5ccccc5c4C[C@@H](C)N3CC(C)(C)F)c(F)c2)C(C)(C)C)cc1 [Example 91, (2S,4R)-1-((S)-15-(tert-Butyl)-1-(3,5-difluoro-4-((1R,3R)-2-(2-fluoro-2-methylpropyl)-3-methyl-2,3,4,9-tetrahydro-1H-pyrido[3,4-b]indol-1-yl)phenyl)-1,13-dioxo-5,8,11-trioxa-2,14-diazahexadecan-16-oyl)-4-hydroxy-N-(4-(4-methylthiazol-5-yl)benzyl)pyrrolidine-2-carboxamide] | •• | 0.3
3 | Cc1ncsc1-c1ccc(CNC(=O)[C@@H]2C[C@@H](O)CN2C(=O)[C@@H](NC(=O)COCCOCCCCCOc2cc(F)c([C@@H]3c4[nH]c5ccccc5c4C[C@@H](C)N3CC(C)(C)F)c(F)c2)C(C)(C)C)cc1 [Example 97, (2S,4R)-1-((S)-2-(2-(2-((5-(3,5-Difluoro-4-((1R,3R)-2-(2-fluoro-2-methylpropyl)-3-methyl-2,3,4,9-tetrahydro-1H-pyrido[3,4-b]indol-1-yl)phenoxy)pentyl)oxy)ethoxy)acetamido)-3,3-dimethylbutanoyl)-4-hydroxy-N-(4-(4-methylthiazol-5-yl)benzyl)pyrrolidine-2-carboxamide] | •• | 0.8
4 | Cc1ncsc1-c1ccc(CNC(=O)[C@@H]2C[C@@H](O)CN2C(=O)[C@@H](NC(=O)COCCOCCOCCOc2cc(F)c([C@@H]3c4[nH]c5ccccc5c4C[C@@H](C)N3CC3(F)CC3)c(F)c2)C(C)(C)C)cc1 [Example 77, (2S,4R)-1-((S)-2-(tert-Butyl)-14-(3,5-difluoro-4-((1R,3R)-2-((1-fluorocyclopropyl)methyl)-3-methyl-2,3,4,9-tetrahydro-1H-pyrido[3,4-b]indol-1-yl)phenoxy)-4-oxo-6,9,12-trioxa-3-azatetradecanoyl)-4-hydroxy-N-(4-(4-methylthiazol-5-yl)benzyl)pyrrolidine-2-carboxamide] | •• | 1
5 | Cc1ncsc1-c1ccc(CNC(=O)[C@@H]2C[C@@H](O)CN2C(=O)[C@@H](NC(=O)COCCCOCCOc2cc(F)c([C@@H]3c4[nH]c5ccccc5c4C[C@@H](C)N3CC(F)(F)F)c(F)c2)C(C)(C)C)cc1 [Example 94, (2S,4R)-1-((S)-2-(2-(3-(2-(3,5-Difluoro-4-((1R,3R)-3-methyl-2-(2,2,2-trifluoroethyl)-2,3,4,9-tetrahydro-1H-pyrido[3,4-b]indol-1-yl)phenoxy)ethoxy)propoxy)acetamido)-3,3-dimethylbutanoyl)-4-hydroxy-N-(4-(4-methylthiazol-5-yl)benzyl)pyrrolidine-2-carboxamide] | • | 0.6
6 | Cc1ncsc1-c1ccc(CNC(=O)[C@@H]2C[C@@H](O)CN2C(=O)[C@@H](NC(=O)COCCOCCOCCOCC(=O)Nc2cc(F)c([C@@H]3c4[nH]c5ccccc5c4C[C@@H](C)N3CC(C)(C)F)c(F)c2)C(C)(C)C)cc1 [Example 68, N1-(3,5-difluoro-4-((1R,3R)-2-(2-fluoro-2-methylpropyl)-3-methyl-2,3,4,9-tetrahydro-1H-pyrido[3,4-b]indol-1-yl)phenyl)-N14-((S)-1-((2S,4R)-4-hydroxy-2-((4-(4-methylthiazol-5-yl)benzyl)carbamoyl)pyrrolidin-1-yl)-3,3-dimethyl-1-oxobutan-2-yl)-3,6,9,12-tetraoxatetradecanediamide] | •• | 6.2
7 | Cc1ncsc1-c1ccc(CNC(=O)[C@@H]2C[C@@H](OC(=O)[C@H](C)NC(=O)[C@@H](N)C(C)C)CN2C(=O)[C@@H](NC(=O)COCCOCCOCCOc2cc(F)c([C@@H]3c4[nH]c5ccccc5c4C[C@@H](C)N3CC(C)(C)F)c(F)c2)C(C)(C)C)cc1 [Example 100, (3R,5S)-1-((S)-2-(2-(2-(2-(2-(3,5-Difluoro-4-((1R,3R)-2-(2-fluoro-2-methylpropyl)-3-methyl-2,3,4,9-tetrahydro-1H-pyrido[3,4-b]indol-1-yl)phenoxy)ethoxy)ethoxy)ethoxy)acetamido)-3,3-dimethylbutanoyl)-5-((4-(4-methylthiazol-5-yl)benzyl)carbamoyl)pyrrolidin-3-yl L-valyl-L-alaninate Formate] | •• | 0.4
8 | Cc1ncsc1-c1ccc(CNC(=O)[C@@H]2C[C@@H](O)CN2C(=O)[C@@H](NC(=O)CCCCNC(=O)/C=C/c2cc(F)c([C@@H]3c4[nH]c5ccccc5c4C[C@@H](C)N3CC(C)(C)F)c(F)c2)C(C)(C)C)cc1 [Example 60, (2S,4R)-1-((S)-2-(5-((E)-3-(3,5-difluoro-4-((1R,3R)-2-(2-fluoro-2-methylpropyl)-3-methyl-2,3,4,9-tetrahydro-1H-pyrido[3,4-b]indol-1-yl)phenyl)acrylamido)pentanamido)-3,3-dimethylbutanoyl)-4-hydroxy-N-(4-(4-methylthiazol-5-yl)benzyl)pyrrolidine-2-carboxamide, Trifluoroacetic Acid] | • | 0.5
